In one assay the target is X-box-binding protein 1 (Homo sapiens, UniProt P17861). Format: functional, Cricetulus griseus.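 Further: confirmatory dose-response counter-screen serving a CHOP assay.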
The nature of assay [1]: Counterscreen for AddAB inhibitors: absorbance-based bacterial cell-based high throughput dose response assay for inhibitors of bacterial viability. [Related pubchem assays (depositor defined):AID435030, AID449728, AID449731, AID488942, AID488955, AID488956]. It is filed as functional.
Assay [2] is described as follows: cells.
Assay [3] is described as follows: Trypanosoma cruzi growth suppression in host cells – NIH3T3 host cells, beta-gal luminescence, confirmation (AID 2044).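 Further: intracellular parasites grown in NIH/3T3 mouse fibroblasts as host cells; luminescent beta-galactosidase reporter signal from transgenic T. cruzi replicating inside host cells; inhibitors lower the luminescence signal.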 Format: functional, cell-based.
Assay [4] in a line: NIH3T3 cell viability loss – ATP luminescence, mouse fibroblasts, counter-screen, dose response (AID 2010).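 Further: cells exposed to compound for about 90 hours before reading.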 Format: functional, cell-based. Background: The purpose of a counterscreen is to sort out artefacts and off-target activity.
Assay [5] concerns the target T1, Intestinal-type alkaline phosphatase (Homo sapiens, UniProt P09923). Description: human intestinal alkaline phosphatase activators, dose response, biochemical, luminescence, uHTS hits (AID 463120). Format: functional.
The nature of assay [6]: alpha-synuclein stem-loop luciferase translation blockers – H4 neuroglioma cells, luminescence, confirmation (AID 1988). Format: functional, cell-based.
A short description of assay [7]: luciferase reporter signal suppression in cells – H4 neuroglioma cells, luminescence, dose response (AID 1990). Format: functional, cell-based. In general terms: A reporter such as luciferase makes a cellular process visible.
Assay [8] concerns BJ. Description: BJ-TERT-LT-ST fibroblast viability loss – cell-based, RAS-independent, luminescence, dose response (AID 1935).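 Further: BJ fibroblasts immortalized with TERT plus LT and ST oncogenes.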 It is filed as functional. The following applies: Homo sapiens.
Assay [9] deals with BJ. Description: cells. Format: functional, cell-based. To be noted: Homo sapiens.
Assay [10] in a line: DRD fibroblast viability loss – cell-based, non-viral oncogenic, luminescence, dose response (AID 1934). It is filed as functional. To be noted: Homo sapiens.
For the next assay, the system named is HEK293. Description: EBV LMP1 TES2 canonical NF-kB signalling blockers – cell-based, HEK293, luciferase, cherry-pick, dose response (AID 588343). The following applies: Homo sapiens. It is filed as functional.
Assay [11] can be described thus: luciferase reporter signal reduction – luminescence, H4-C neuroglioblastoma cells, dose response (AID 2458).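 Further: H4 neuroglioblastoma cells stably carrying a luciferase reporter gene fusion.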 It is filed as functional, cell-based.
In assay [12] the test system is BJ. Nature of the assay: growth inhibition of engineered Ras-driven BJ cells – cell-based, alamar blue fluorescence, cherrypicked samples, dose response (AID 2631).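 Further: confirmatory dose-response assay in RAS-dependent BJ fibroblasts engineered with TERT, LT and ST, with cytotoxicity read by fluorescence.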 To be noted: Homo sapiens. It is filed as functional.
A further assay deals with Streptococcus. Nature of the assay: GAS UMAA2166 growth inhibition – luminescence, BacTiterGlo, counter-screen for streptokinase expression inhibitor project, dose response (AID 1915).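 Further: potency for reduction of bacterial viability or growth.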 Format: functional, organism-based.
The subject of assay [13] is Streptococcus sp. 'group A'. Nature of the assay: Streptococcus pyogenes SK(-)GAS viability under kanamycin – luminescence, BacTiterGlo, confirmation, counter-screen for streptokinase expression inhibitor project, dose response (AID 1900). Format: functional, organism-based.
For assay [14], the system named is BJ. Nature of the assay: BJ-TERT fibroblast viability loss – cell-based, RAS-independent, luminescence, dose response (AID 1933). It is filed as functional. To be noted: Homo sapiens.
Assay [15] can be described thus: alpha-synuclein stem-loop translation blockers – luminescence, H4 neuroglioblastoma cells, dose confirmation, confirmation (AID 2454).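 Further: H4 neuroglioblastoma cells carrying an alpha-synuclein 5'UTR luciferase reporter; potency for inhibition of the luciferase signal.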 It is filed as functional, cell-based.
The nature of assay [16]: cells. Format: functional, cell-based.
A further assay addresses T2, Coagulation factor XII (Homo sapiens, UniProt P00748).
T2 sequence (P00748 whole entry): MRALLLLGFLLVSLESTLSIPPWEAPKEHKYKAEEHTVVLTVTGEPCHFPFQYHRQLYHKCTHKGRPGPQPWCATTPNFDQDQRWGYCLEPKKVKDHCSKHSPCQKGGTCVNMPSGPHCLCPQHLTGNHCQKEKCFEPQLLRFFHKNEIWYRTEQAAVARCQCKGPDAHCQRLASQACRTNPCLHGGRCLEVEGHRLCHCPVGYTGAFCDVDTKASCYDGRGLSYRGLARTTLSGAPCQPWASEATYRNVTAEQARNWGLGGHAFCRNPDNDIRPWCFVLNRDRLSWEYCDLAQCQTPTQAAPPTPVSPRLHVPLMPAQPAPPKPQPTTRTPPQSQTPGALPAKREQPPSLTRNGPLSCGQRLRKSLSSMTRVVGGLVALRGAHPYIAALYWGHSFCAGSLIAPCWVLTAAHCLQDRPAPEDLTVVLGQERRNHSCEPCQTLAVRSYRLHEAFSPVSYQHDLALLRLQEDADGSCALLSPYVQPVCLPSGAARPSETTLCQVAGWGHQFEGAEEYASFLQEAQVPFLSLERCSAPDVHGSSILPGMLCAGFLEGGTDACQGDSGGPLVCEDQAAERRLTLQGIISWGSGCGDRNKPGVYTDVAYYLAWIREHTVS
Format: functional.

Assay [17] concerns the target T1, Intestinal-type alkaline phosphatase. Nature of the assay: Dose Response confirmation of uHTS hits from a small molecule inhibitors of human intestinal alkaline phosphatase via a luminescent assay. [Related pubchem assays (depositor defined):AID2544, AID2574]. It is filed as functional.
In the next assay the test system is T-cell. Description: loss of vesicle association with mouse CD8+ T cells – mouse 2C CD8+ T cells, flow cytometry, dose response (AID 485284). Format: functional. (In general: A flow cytometer gives signals particle by particle.)

SMILES strings stand for the structures. Activity calls are given as the source filed them. For most assays here, no stated cut-off is given here; in the data, actives have a measured EC50 and inactives only a lower limit.

What is called IC50 is the concentration at which inhibition is half-maximal. For orientation: EC50 means the concentration that produces a half-maximal response. As usually defined, the AC50 is the midpoint of the concentration-response curve, whichever way the signal moves.

T1 sequence (P09923 whole entry): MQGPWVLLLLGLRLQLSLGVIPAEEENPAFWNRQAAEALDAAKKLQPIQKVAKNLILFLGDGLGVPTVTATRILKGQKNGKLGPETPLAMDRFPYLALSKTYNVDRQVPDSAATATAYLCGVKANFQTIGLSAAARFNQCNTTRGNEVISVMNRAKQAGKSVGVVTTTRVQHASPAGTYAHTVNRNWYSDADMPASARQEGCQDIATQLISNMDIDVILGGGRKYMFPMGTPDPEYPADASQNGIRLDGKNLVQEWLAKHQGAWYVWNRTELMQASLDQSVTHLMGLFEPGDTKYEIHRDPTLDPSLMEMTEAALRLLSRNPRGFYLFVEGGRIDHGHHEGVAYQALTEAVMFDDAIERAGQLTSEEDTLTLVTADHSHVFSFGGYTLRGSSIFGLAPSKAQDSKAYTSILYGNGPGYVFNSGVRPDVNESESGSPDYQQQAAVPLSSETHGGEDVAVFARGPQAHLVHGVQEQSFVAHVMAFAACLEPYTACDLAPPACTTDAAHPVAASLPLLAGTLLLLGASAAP
Chain of X-box-binding protein 1 (P17861 whole entry): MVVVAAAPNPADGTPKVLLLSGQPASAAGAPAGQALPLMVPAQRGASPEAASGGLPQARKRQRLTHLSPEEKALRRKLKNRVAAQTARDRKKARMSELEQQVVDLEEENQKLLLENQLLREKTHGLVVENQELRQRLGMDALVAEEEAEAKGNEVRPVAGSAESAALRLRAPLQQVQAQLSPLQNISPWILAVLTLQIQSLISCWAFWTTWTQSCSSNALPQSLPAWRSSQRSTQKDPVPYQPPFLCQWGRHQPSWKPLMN

On to `CCCc1nc2oc(C(=O)c3ccccc3)c(N)c2c2c1COC(C)(C)C2`, for which the “Absolute IC50 (XBP1)” value at X-box-binding protein 1 was found to be 10 µM.
For the compound `O=C(NCc1cccnc1)c1ccc([N+](=O)[O-])o1`, in [1], the IC50 was > 39.5 µM (inactive). Further, the values for the EC50 (in “cells [2]”; in assay [3]; in [4]) were 137 nM (active), < 100 nM (active) and > 60 µM (inconclusive), respectively.
As to `CC(C)CCNc1ncnc2c1nnn2Cc1ccccc1Cl`, the EC50 in [5] is > 100 µM (inactive).
Take `CN(Cc1cnc2nc(N)nc(N)c2n1)c1ccc(C(=O)N[C@@H](CCC(=O)O)C(=O)O)cc1`: the EC50 in [6] was < 100 nM (active); in assay [7], < 100 nM (active); with BJ [8], > 150 µM (not active); in the assay on BJ [9], < 460 nM (active); in assay [10], 244 nM (active); in assay [11] it was 74 nM (active). The EC50 was > 133 µM (inactive) in the assay on BJ [12]; 650 nM (active) in the assay on Streptococcus; 621 nM (active) in assay [13]; > 150 µM (not active) in the assay with BJ [14]; 11 nM (active) in assay [15]; 78 nM (active) in the assay “cells [16]”. The AC50 in the assay with HEK293 was 332 nM (active).
In the case of `COc1cccc(NC(C)(C)c2nnnn2-c2c(C)cccc2C)c1`, the IC50 on Coagulation factor XII was > 50 µM (inactive).
Consider `COc1ccc(C2=Nc3cc(C)ccc3OC2)cc1`, for which the IC50 in assay [17] is > 100 µM (inactive). Also, the EC50 in the assay with T-cell was 8.65 µM (active).

The values above are taken from ChEMBL document CHEMBL1201862, “PubChem BioAssay data set” (2004).
